Test results published in patent US9026203B2, “Photosensitizing compositions” (PCI Biotech AS, priority 2009, dated 2015).
Read-outs that look alike come from different tables or passages of the source.

What was measured:
[1] = Stability of aqueous solutions of salts at 40° C., analyzed by HPLC; assay type: physicochemical
Protocol: Aqueous solutions of TPPS2a salts (approx. 1% weight) were kept at 40° C. for 31 days. The solutions were analyzed by HPLC (HP 1100). The HPLC conditions were as follows:
Column: Agilent Extend C-18
Mobile phase: 85% methanol, 15% water
Detector: UV detector, 415 nm
Aqueous solutions of TPCS2a salts (approx. 1% weight) were kept at 40° C. for 31 days.

[2] = Solubility of salts in water (water added in 0.2 ml portions); assay type: physicochemical
Source text: The mixture was agitated until solid particles were broken up and dissolved.

[3] = tested on: target tumour (head and neck squamous cell carcinoma, osteosarcoma, skin metastases of breast cancer); details: other photosensitizers formulated in non-aqueous formulations; cited from earlier work
[4] = tested on: target tumour (head and neck squamous cell carcinoma, osteosarcoma, skin metastases of breast cancer); assay type: in vivo, patients; details: 0.25-1.0 mg/kg 4 days before illumination (652 nm, 60 J/cm^2), bleomycin 15 000 IU per m^2 i.v. 3 hours before illumination; a few weeks after treatment
Protocol: In addition, the patients received an intravenous injection of the cytotoxic agent bleomycin (15 000 IU per m^2 body surface) 3 hours before illumination. […] The aqueous formulation also made it possible to flush the injection needle and vein with saline after photosensitizer injection, thereby eliminating the unwanted effect of photosensitivity at or near to the injection site which is often observed for photosensitizers in non-aqueous formulations where such flushing is not possible. The patient population included patients with head and neck cancers (squamous cell carcinoma), osteosarcoma and skin metastases of breast cancer.

[5] = aqueous solution approx. 1% weight, 40° C. for 31 days, HPLC UV 415 nm

Degradation [1] | Compound | Degradation [1, 5] | also measured
 | NCCO.NCCO.O=S(=O)(O)c1ccc(-c2c3nc(c(-c4ccc(S(=O)(=O)O)cc4)c4ccc([nH]4)c(-c4ccccc4)c4nc(c(-c5ccccc5)c5ccc2[nH]5)C=C4)C=C3)cc1 [Example 1, Meso-Tetraphenyl Porphyrin Disulphonate bis(monoethanolamine)] | No degradation | 
No degradation | CNCC(O)C(O)C(O)C(O)CO.CNCC(O)C(O)C(O)C(O)CO.O=S(=O)(O)c1ccc(-c2c3nc(c(-c4ccccc4)c4ccc([nH]4)c(-c4ccccc4)c4nc(c(-c5ccc(S(=O)(=O)O)cc5)c5ccc2[nH]5)C=C4)C=C3)cc1 [Example 2, Meso-Tetraphenyl Porphyrin Disulphonate bis(meglumate)] |  | Minimum solubility in water [2]: 89.7 mg/mL
No degradation | O=S(=O)(O)c1ccc(-c2c3nc(c(-c4ccccc4)c4ccc([nH]4)c(-c4ccccc4)c4nc(c(-c5ccc(S(=O)(=O)O)cc5)c5ccc2[nH]5)C=C4)C=C3)cc1.OCCNCCO.OCCNCCO [Example 4, Meso-Tetraphenyl Porphyrin Disulphonate bis(diethanolamine)] |  | 
 | O=S(=O)(O)c1ccc(-c2c3nc(c(-c4ccc(S(=O)(=O)O)cc4)c4ccc([nH]4)c(-c4ccccc4)c4nc(c(-c5ccccc5)c5ccc2[nH]5)C=C4)C=C3)cc1.OCCN(CCO)CCO.OCCN(CCO)CCO [Example 6, Meso-Tetraphenyl Porphyrin Disulphonate bis(triethanolamine)] | No degradation | 
 | Oc1cccc(-c2c3nc(c(-c4cccc(O)c4)c4ccc([nH]4)c(-c4cccc(O)c4)c4nc(c(-c5cccc(O)c5)c5ccc2[nH]5)CC4)C=C3)c1 [temoporfin] |  | Pain on administration [3]: can be associated with strong pain
 | Meso-Tetraphenyl Chlorin Disulphonate bis(meglumate) [Example 8] | No degradation | Minimum solubility in water ([2]; approx. 50 mg salt, water added in 0.2 ml portions until dissolved): 38.9 mg/mL
No degradation | Meso-Tetraphenyl Chlorin Disulphonate bis(monoethanolamine) [Example 7] |  | 
 | Meso-tetraphenyl chlorin disulphonate [TPCS2a] |  | Clinical regression of the target tumour [4]: Complete clinical regression of the target tumour was induced in all patients

Compound | Degradation [1] | Degradation [1, 5] | also measured
O=S(=O)(O)c1ccc(-c2c3nc(c(-c4ccc(S(=O)(=O)O)cc4)c4ccc([nH]4)c(-c4ccccc4)c4nc(c(-c5ccccc5)c5ccc2[nH]5)C=C4)C=C3)cc1.OCCN1CCCC1.OCCN1CCCC1 [Example 5, Meso-Tetraphenyl Porphyrin Disulphonate bis(1-(2-hydroxyethyl)pyrrolidine)] | No degradation |  | 
